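Assay format: 96-well plates, 48-hour exposure. GI50 = concentration required for 50% inhibition of growth.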 Active and inactive are the calls of the source. Cut-off read from the data, not from the text of the source: active = GI50 up to about 1.1 µM and inactive = higher.
Columns and labels:
Experiment in all cases: NCI tumour cell line growth inhibition, 48 h
HL-60 = tested on: HL-60
UACC-257 = tested on: UACC-257
HOP-92 = tested on: HOP-92
COLO 205 = tested on: COLO 205
OVCAR-3 = tested on: OVCAR-3
UO-31 = tested on: UO-31
KM12 = tested on: KM12
NCI-H226 = tested on: NCI-H226
K562 = tested on: K562
Malme-3M = tested on: Malme-3M
SNB-19 = tested on: SNB-19
RPMI-8226 = tested on: RPMI-8226
SK-MEL-2 = tested on: SK-MEL-2
KM-20L2 = tested on: KM-20L2
TK-10 = tested on: TK-10
OVCAR-5 = tested on: OVCAR-5
HCT-116 = tested on: HCT-116
A498 = tested on: A498
EKVX = tested on: EKVX
SK-MEL-28 = tested on: SK-MEL-28
SN12C = tested on: SN12C
M19-MEL = tested on: M19-MEL
A549 = tested on: A549
CCRF-CEM = tested on: CCRF-CEM
OVCAR-4 = tested on: OVCAR-4
HCT-15 = tested on: HCT-15
SK-MEL-5 = tested on: SK-MEL-5
M14 = tested on: M14
LOX IMVI = tested on: LOX IMVI
NCI-H522 = tested on: NCI-H522
MOLT-4 = tested on: MOLT-4
SF-268 = tested on: SF-268
RXF 631 = tested on: RXF 631
HT-29 = tested on: HT-29
NCI-H23 = tested on: NCI-H23
SNB-78 = tested on: SNB-78
HCC 2998 = tested on: HCC 2998
SK-OV-3 = tested on: SK-OV-3
RXF 393 = tested on: RXF 393
DMS-273 = tested on: DMS-273
SF-539 = tested on: SF-539
786-0 = tested on: 786-0
OVCAR-8 = tested on: OVCAR-8
SNB-75 = tested on: SNB-75
CAKI-1 = tested on: CAKI-1
U-251 = tested on: U-251
HOP-62 = tested on: HOP-62
DMS-114 = tested on: DMS-114
SR = tested on: SR
IGROV-1 = tested on: IGROV-1
SW-620 = tested on: SW-620
UACC-62 = tested on: UACC-62
SF-295 = tested on: SF-295
NCI-H460 = tested on: NCI-H460
ACHN = tested on: ACHN
HOP-18 = tested on: HOP-18
DLD-1 = tested on: DLD-1
LXFL 529 = tested on: LXFL 529

With `N#Cc1ccc(/C=N/C23CC4CC(CC(C4)C2)C3)cc1` the GI50 (HL-60) was 27 µM (inactive), the GI50 (UACC-257) was > 100 µM (inactive) and the GI50 (HOP-92) was 83.9 µM (inactive). The GI50 (COLO 205) was > 100 µM (inactive), the GI50 (OVCAR-3) was > 100 µM (inactive) and the GI50 (UO-31) was > 100 µM (inactive). The GI50 (KM12) was > 100 µM (inactive), the GI50 (NCI-H226) was > 100 µM (inactive) and the GI50 (K562) was 39.5 µM (inactive). For the same molecule, the GI50 (Malme-3M) was > 100 µM (inactive), the GI50 (SNB-19) was > 100 µM (inactive) and the GI50 (RPMI-8226) was > 100 µM (inactive). The GI50 (SK-MEL-2) was > 100 µM (inactive), the GI50 (KM-20L2) was > 100 µM (inactive) and the GI50 (TK-10) was > 100 µM (inactive). For the same molecule, the GI50 (OVCAR-5) was > 100 µM (inactive), the GI50 (HCT-116) was 39.4 µM (inactive) and the GI50 (A498) was > 100 µM (inactive). For the same molecule, the GI50 (EKVX) was > 100 µM (inactive), the GI50 (SK-MEL-28) was > 100 µM (inactive) and the GI50 (SN12C) was > 100 µM (inactive). The GI50 (M19-MEL) was > 100 µM (inactive), the GI50 (A549) was > 100 µM (inactive) and the GI50 (CCRF-CEM) was 96.8 µM (inactive). The GI50 (OVCAR-4) was > 100 µM (inactive), the GI50 (HCT-15) was over 100 µM and the GI50 (SK-MEL-5) was > 10 µM (inactive). For the same molecule, the GI50 (M14) was > 100 µM (inactive), the GI50 (LOX IMVI) was 76.6 µM (inactive) and the GI50 (NCI-H522) was > 100 µM (inactive). The GI50 (MOLT-4) was 78.5 µM (inactive), the GI50 (SF-268) was > 100 µM (inactive) and the GI50 (RXF 631) was 32.5 µM (inactive). For the same molecule, the GI50 (HT-29) was 63.1 µM (inactive), the GI50 (NCI-H23) was > 100 µM (inactive) and the GI50 (SNB-78) was > 100 µM (inactive). For the same molecule, the GI50 (HCC 2998) was > 100 µM (inactive), the GI50 (SK-OV-3) was > 100 µM (inactive) and the GI50 (RXF 393) was > 100 µM (inactive). For the same molecule, the GI50 (DMS-273) was 98.2 µM (inactive), the GI50 (SF-539) was > 100 µM (inactive) and the GI50 (786-0) was > 100 µM (inactive). For the same molecule, the GI50 (OVCAR-8) was > 100 µM (inactive), the GI50 (SNB-75) was > 10 µM (inactive) and the GI50 (CAKI-1) was > 100 µM (inactive). For the same molecule, the GI50 (U-251) was > 100 µM (inactive), the GI50 (HOP-62) was > 100 µM (inactive) and the GI50 (DMS-114) was 56 µM (inactive). For the same molecule, the GI50 (SR) was > 100 µM (inactive), the GI50 (IGROV-1) was > 100 µM (inactive) and the GI50 (SW-620) was > 100 µM (inactive). The GI50 (UACC-62) was > 100 µM (inactive), the GI50 (SF-295) was > 100 µM (inactive) and the GI50 (NCI-H460) was > 100 µM (inactive). The GI50 (ACHN) was > 100 µM (inactive).

With `COc1cc(/C=C2/C(=O)NC(Cc3cc(OC)c(OC)c(C)c3OC)C(=O)N2Cc2ccccc2)c(OC)c(C)c1OC` (configuration not stated) the GI50 (HL-60) was 24.4 µM (inactive), the GI50 (UACC-257) was 61.5 µM (inactive) and the GI50 (HOP-92) was 17.8 µM (inactive). For the same molecule, the GI50 (COLO 205) was 17.7 µM (inactive), the GI50 (OVCAR-3) was 47.2 µM (inactive) and the GI50 (UO-31) was 26 µM (inactive). For the same molecule, the GI50 (HOP-18) was 18.3 µM (inactive), the GI50 (KM12) was 55.5 µM (inactive) and the GI50 (NCI-H226) was 58.6 µM (inactive). For the same molecule, the GI50 (K562) was 44.2 µM (inactive), the GI50 (Malme-3M) was 30.8 µM (inactive) and the GI50 (SNB-19) was 81.3 µM (inactive). The GI50 (RPMI-8226) was 24.3 µM (inactive), the GI50 (DLD-1) was 72.3 µM (inactive) and the GI50 (SK-MEL-2) was 30.2 µM (inactive). The GI50 (KM-20L2) was 95.9 µM (inactive), the GI50 (TK-10) was 56.5 µM (inactive) and the GI50 (OVCAR-5) was 93.8 µM (inactive). The GI50 (HCT-116) was > 100 µM (inactive), the GI50 (A498) was 44.4 µM (inactive) and the GI50 (EKVX) was 38.9 µM (inactive). For the same molecule, the GI50 (SK-MEL-28) was > 100 µM (inactive), the GI50 (SN12C) was 54.3 µM (inactive) and the GI50 (M19-MEL) was 47.4 µM (inactive). The GI50 (A549) was > 100 µM (inactive), the GI50 (CCRF-CEM) was 39.7 µM (inactive) and the GI50 (OVCAR-4) was 44.4 µM (inactive). The GI50 (SK-MEL-5) was 43.7 µM (inactive), the GI50 (M14) was 33 µM (inactive) and the GI50 (LOX IMVI) was 70 µM (inactive). The GI50 (NCI-H522) was 18.2 µM (inactive), the GI50 (MOLT-4) was 23 µM (inactive) and the GI50 (SF-268) was 69.5 µM (inactive). For the same molecule, the GI50 (RXF 631) was 90.2 µM (inactive), the GI50 (HT-29) was 79.8 µM (inactive) and the GI50 (NCI-H23) was 79.8 µM (inactive). For the same molecule, the GI50 (HCC 2998) was 55.1 µM (inactive), the GI50 (SK-OV-3) was 49.2 µM (inactive) and the GI50 (RXF 393) was > 100 µM (inactive). For the same molecule, the GI50 (DMS-273) was 51.5 µM (inactive), the GI50 (SF-539) was 75 µM (inactive) and the GI50 (LXFL 529) was 34.8 µM (inactive). For the same molecule, the GI50 (786-0) was 79.3 µM (inactive), the GI50 (OVCAR-8) was 47.4 µM (inactive) and the GI50 (SNB-75) was 45.6 µM (inactive). For the same molecule, the GI50 (CAKI-1) was 39.6 µM (inactive), the GI50 (U-251) was 48.2 µM (inactive) and the GI50 (HOP-62) was > 100 µM (inactive). The GI50 (DMS-114) was 38.2 µM (inactive), the GI50 (SR) was 14.3 µM (inactive) and the GI50 (IGROV-1) was 61.9 µM (inactive). The GI50 (SW-620) was 80.2 µM (inactive), the GI50 (UACC-62) was 89.7 µM (inactive) and the GI50 (SF-295) was 50.5 µM (inactive). The GI50 (NCI-H460) was 38.1 µM (inactive) and the GI50 (ACHN) was 61.7 µM (inactive).

In the case of `O=C(O)C1NCCc2c1[nH]c1ccccc21` (configuration not stated), the GI50 (UO-31) is reported as > 100 µM (inactive), the GI50 (HOP-18) is reported as > 100 µM (inactive) and the GI50 (NCI-H226) is reported as > 100 µM (inactive). For the same molecule, the GI50 (DLD-1) was > 100 µM (inactive), the GI50 (SK-MEL-2) was > 100 µM (inactive) and the GI50 (KM-20L2) was > 100 µM (inactive). For the same molecule, the GI50 (OVCAR-5) was > 100 µM (inactive), the GI50 (M19-MEL) was > 100 µM (inactive) and the GI50 (LOX IMVI) was > 100 µM (inactive). For the same molecule, the GI50 (RXF 631) was > 100 µM (inactive), the GI50 (SNB-78) was > 100 µM (inactive) and the GI50 (DMS-273) was > 100 µM (inactive). The GI50 (LXFL 529) was > 100 µM (inactive), the GI50 (DMS-114) was > 100 µM (inactive) and the GI50 (SF-295) was > 100 µM (inactive). The GI50 (NCI-H460) was > 100 µM (inactive).
